Measurements reported in patent publication US11352604B2, “Method of making cardiomyocytes from human pluripotent cells” (Wisconsin Alumni Research Foundation, priority 2016, dated 2022).

Tests used:
Format in all cases: cell-based, human
hPSC-CMs [1] = assay: Flow cytometry of differentiated cells (cTnT, MLC2v)
Protocol: Flow cytometry for internal antigens was done on dissociated cells using the same blocking, washing, secondary antibodies, and buffers as internal antigen immunofluorescence described above using mlc2v (proteintech, 1:100) and cardiac troponin T (Thermo Fisher Scientific, 1:200) in the 19-9-11 iPS cell line. Between washes and staining steps, dissociated cells were pelleted at 1,100 g for 5 minutes. Blocking and antibody staining steps were done in a volume of 100 μL, and washing steps in 1 mL in Eppendorf™ tubes.
(§1) Flow cytometry for live cell surface antigens was done on dissociated cells of the 19-9-11 iPS cell line with Thy1 biotin (1:200 Biolegend, with Life Technologies streptavidin direct conjugate at 1:1000) and SIRPα (1:200, Biolegend) in K20 and then analyzed at the UWCCC Flow Cytometry Laboratory using a BD LSRII Fortessa flow cytometer. For progenitor flow experiments, cells were dissociated as above for progenitor dissociation, centrifuged at 200×g, subjected to FACS to concentrate cells, and resuspended in 100 μL, of K2 media+rockI/Jag1 PE, BD Biosciences (1:20); Notch2 APC R&D Biosystems (1:10) and analyzed on either a BD FACSariaII cell sorter or BD LSRII Fortessa flow cytometer.

hPSC-CMs [2] = assay: Seahorse oxygen consumption rate; settings: cardiomyocytes from treated vs untreated progenitors
Protocol: After hPSC-CM dissociation of day 40-70 lactate-purified hPSC-CMs from the H9 cTnT-GFP reporter cell line, 25,000 cells per well were replated into Synthemax®-coated wells of Seahorse XF96 V3 PS cell culture plates (Agilent). Plates were analyzed for basal and maximal oxygen consumption rate with a Seahorse XF cell mito stress kit according to the manufacturer's instructions (Agilent) using concentrations of 1 μM oligomycin, 2 μM FCCP, and 0.5 μM Rotenone/antimycin A. Purity was determined by dissociating seahorse wells after analysis and doing live cell flow cytometry for cTnT-GFP. To directly compare data between plate runs/biological replicates, the fold change between hPSC-CMs from pI:C− and pI:C+ progenitors was computed for each sample's maximal and basal oxygen consumption rate normalized to total protein estimated after cell lysis in EBC buffer. Log2 of the fold changes was tested for significance in a one-sample t test against a null hypothesis of 0.

[3] = tested on: day 5 cardiac progenitors; assay: Gene ontology / KEGG pathway analysis of pI:C up- and downregulated RNA-seq genes; settings: pI:C top upregulated GO terms
Protocol: Day-5 cells from d3-5 untreated, TGFβ-treated, and pI:C-treated progenitors from the 19-9-11 iPS cell line were separately prepared as above for cell dissociation of progenitors from three different wells of each condition (for 9 total sequencing samples) and isolated as described above for RNA for RT-qPCR. rRNA-reduced Illumina TruSeq™ Stranded total RNA libraries were prepared and 1×100 bp single end sequencing was performed. To map and annotate RNA-seg data, STAR and HTSeq were used, respectively (Anders et al., 2015; Dobin and Gingeras, 2015). Annotated transcript counts were further processed with DeSEq2 for differential gene expression analysis (Love et al., 2014). Gene neighborhood analysis was performed with NEST (Jiang et al., 2015).

Jag1 = assay: Flow cytometry of day 5 progenitors for Jag1 and Notch2
Excerpt: as §1

[4] = KEGG_PATHWAY hsa03030:DNA replication
[5] = KEGG_PATHWAY hsa03430:Mismatch repair
[6] = KEGG_PATHWAY hsa03460:Fanconi anemia pathway
[7] = KEGG_PATHWAY hsa04110:Cell cycle
[8] = KEGG_PATHWAY hsa05034:Alcoholism
[9] = KEGG_PATHWAY hsa05203:Viral carcinogenesis
[10] = KEGG_PATHWAY hsa05322:Systemic lupus erythematosus

## polyinosinic-polycytidylic acid [pI:C]
hPSC-CMs [1]; comparable for pI:C-treated and untreated progenitors, hES and hiPS cell lines
  purity of cardiomyocytes marked by cardiac troponin T (cTnT) expression: 80-95%
hPSC-CMs [1]; day 30
  percentage of mlc2v+/cTnT+ hPSC-CMs: markedly increased
hPSC-CMs [2]
  basal oxygen consumption rate: approximately 2 fold
  maximal oxygen consumption rate: approximately 2 fold
[3]; [4]
  % (genes in term): 2.3989%
  Count (upregulated genes in term): 18
[3]; [5]
  % (genes in term): 1.0662%
  Count (upregulated genes in term): 8
[3]; [6]
  % (genes in term): 1.3327%
  Count (upregulated genes in term): 10
[3]; [7]
  % (genes in term): 1.9991%
  Count (upregulated genes in term): 15
[3]; [8]
  % (genes in term): 4.6645%
  Count (upregulated genes in term): 35
[3]; [9]
  % (genes in term): 3.1985%
  Count (upregulated genes in term): 24
[3]; KEGG_PATHWAY hsa05218:Melanoma
  % (genes in term): 1.3327%
  Count (upregulated genes in term): 10
[3]; [10]
  % (genes in term): 4.7978%
  Count (upregulated genes in term): 36
Jag1
  number of Jag1 positive cells and median fluorescence signal-to-noise: increased
